Laboratory results as given in patent US11986471B2, “Compounds and methods of use” (Tango Therapeutics, Inc., priority 2018, dated 2024).

Key:
[1] = molecular target: T1, PRMT5 (Homo sapiens, UniProt O14744); assay: PRMT5 IC50 assay in the presence of SAM as cofactor; type: biochemical
T1 construct: purchased Viva (custom protein)
How it was run: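 Each compound is tested on PRMT5 in the presence of SAM, of MTA, and without any cofactor. Ki values are then back-calculated using fixed factors of 1.5 (SAM) and 13.5 (MTA), and the two Ki values are compared as a ratio.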

[2] = molecular target: T1, PRMT5; assay: PRMT5 IC50 assay with no cofactor; type: biochemical
How it was run: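 Values reflect IC50 (μM) on human PRMT5 under three cofactor states. Selectivity is derived as the quotient of SAM-state Ki over MTA-state Ki, with each Ki obtained from its IC50.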

[3] = molecular target: T1, PRMT5; assay: PRMT5 IC50 assay in the presence of MTA as cofactor; type: biochemical; details: for IC50: PRMT5, MTA as cofactor
How it was run: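 Three cofactor conditions tested for PRMT5 inhibition: none, MTA and SAM, each giving an IC50. For conversion to Ki, the MTA-condition IC50 is divided by 13.5 and the SAM-condition IC50 by 1.5, and the two Ki values are expressed as a SAM/MTA ratio.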

[4] = test system: HAP1 MTAP-intact; assay: SDMA in-cell western assay, HAP1 MTAP-intact cell line; type: cell-based; details: Homo sapiens
Text: Table 1a also indicates IC50 values in an MTAP-isogenic cell line pair for exemplary compounds in an SDMA in-cell western assay (columns 7-8). HAP1 MTAP-intact is a cell line in which endogenous levels of MTAP are expressed, and HAP1 MTAP-deleted is an MTAP-null cell line. […] Compounds with a ratio in the SDMA in-cell western assay of equal to or greater than 3 fold are considered MTAP-selective.

[5] = test system: HAP1 MTAP-deleted; assay: SDMA in-cell western assay, HAP1 MTAP-deleted cell line; type: cell-based; details: for IC50: Homo sapiens, HAP1 MTAP-deleted cell line; for MTAP Intact/Deleted Ratio: IC50 ratio HAP1 MTAP-intact / HAP1 MTAP-deleted
Text: Table 1a also indicates IC50 values in an MTAP-isogenic cell line pair for exemplary compounds in an SDMA in-cell western assay (columns 7-8). HAP1 MTAP-intact is a cell line in which endogenous levels of MTAP are expressed, and HAP1 MTAP-deleted is an MTAP-null cell line.

[6] = ratio between the Ki in the presence of SAM and the Ki in the presence of MTA
[7] = ratio between Ki in the presence of SAM and Ki in the presence of MTA

T1 sequence (O14744 whole entry): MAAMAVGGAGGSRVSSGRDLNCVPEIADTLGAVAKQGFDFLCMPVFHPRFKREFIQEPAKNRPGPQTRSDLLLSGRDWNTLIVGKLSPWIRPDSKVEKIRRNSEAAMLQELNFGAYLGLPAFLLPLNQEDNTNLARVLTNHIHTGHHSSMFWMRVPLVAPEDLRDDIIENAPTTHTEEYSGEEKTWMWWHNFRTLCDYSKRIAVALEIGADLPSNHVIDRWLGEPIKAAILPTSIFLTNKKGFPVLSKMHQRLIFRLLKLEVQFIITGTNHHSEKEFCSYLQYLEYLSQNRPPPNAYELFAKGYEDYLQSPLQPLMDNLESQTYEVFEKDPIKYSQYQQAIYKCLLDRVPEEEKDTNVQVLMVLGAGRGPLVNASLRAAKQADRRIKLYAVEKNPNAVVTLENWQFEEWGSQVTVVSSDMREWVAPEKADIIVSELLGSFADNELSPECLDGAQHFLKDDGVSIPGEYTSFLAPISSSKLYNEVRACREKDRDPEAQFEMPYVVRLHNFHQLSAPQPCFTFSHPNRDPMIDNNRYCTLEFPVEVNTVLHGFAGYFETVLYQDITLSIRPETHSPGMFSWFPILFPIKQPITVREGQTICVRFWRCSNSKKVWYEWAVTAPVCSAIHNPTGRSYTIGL
T1 sequence (Q9BQA1 whole entry partner): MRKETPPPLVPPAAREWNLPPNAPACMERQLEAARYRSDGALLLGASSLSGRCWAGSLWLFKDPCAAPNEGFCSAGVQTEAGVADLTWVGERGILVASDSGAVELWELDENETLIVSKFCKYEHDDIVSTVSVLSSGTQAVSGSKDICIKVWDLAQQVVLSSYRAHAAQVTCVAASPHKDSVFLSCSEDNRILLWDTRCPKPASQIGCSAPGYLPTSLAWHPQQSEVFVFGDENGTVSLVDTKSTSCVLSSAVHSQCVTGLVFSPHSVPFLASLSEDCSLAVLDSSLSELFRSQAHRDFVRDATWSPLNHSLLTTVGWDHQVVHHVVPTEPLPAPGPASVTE

| Structure (SMILES) | IC50 [1] [nM] | IC50 [2] [nM] | IC50 [3] [nM] | SAM/MTA Ratio [3, 6] | IC50 [4] [nM] | IC50 [5] [nM] | MTAP Intact/Deleted Ratio [5] | IC50 ([2]; read-out: No Co-factor IC50) [nM] | SAM/MTA Ratio [3, 7] |
| --- | --- | --- | --- | --- | --- | --- | --- | --- | --- |
| CC(C)CC(=O)N1CCC(Nc2cc(C(=O)NC[C@H](O)CN3CCc4cc(OCc5cnco5)ccc4C3)ccn2)CC1 [Compound 446, N-[(2S)-2-hydroxy-3-[6-(oxazol-5-ylmethoxy)-3,4-dihydro-1H-isoquinolin-2-yl]propyl]-2-[[1-(3-methylbutanoyl)-4-piperidyl]amino]pyridine-4-carboxamide] | 50 to 500 | 500 to 5000 | < 50 | A (a Ki ratio greater than or equal to 10 fold between the Ki in the presence of SAM and the Ki in the presence of MTA) | 1000 to 10000 | < 1000 | C* (an IC50 ratio of less than 3 fold between the IC50 in the HAP1 MTAP-intact cell line and the HAP1 MTAP-deleted cell line) |  |  |
| Cc1c(OCc2cnco2)ccc2c1CCN(C[C@@H](O)CNC(=O)c1cc(N[C@H]3CC[C@H](C(=O)N4CCCCC4)CC3)ncn1)C2 [Compound 589, N-[(2S)-2-hydroxy-3-{5-methyl-6-[(1,3-oxazol-5-yl)methoxy]-1,2,3,4-tetrahydroisoquinolin-2-yl}propyl]-6-{((1r,4r)-4-(piperidine-1-carbonyl)cyclohexyl]amino}pyrimidine-4-carboxamide] | 50 to 500 | 500 to 5000 | 50 to 500 | A (a Ki ratio greater than or equal to 10 fold between the Ki in the presence of SAM and the Ki in the presence of MTA) | ≥ 10000 | < 1000 | A* (an IC50 ratio greater than or equal to 10 fold between the IC50 in the HAP1 MTAP-intact cell line and the HAP1 MTAP-deleted cell line) |  |  |
| O=C(NC[C@H](O)CN1CCc2c(ccc(OCc3cnco3)c2Cl)C1)c1ccc(OC2CCOCC2)cc1 [Compound 482, (S)—N-(3-(5-chloro-6-(oxazol-5-ylmethoxy)-3,4-dihydroisoquinolin-2(1H)-yl)-2-hydroxypropyl)-4-((tetrahydro-2H-pyran-4-yl)oxy)benzamide] | 500 to 5000 | ≥ 5000 | 500 to 5000 | A (a Ki ratio greater than or equal to 10 fold between the Ki in the presence of SAM and the Ki in the presence of MTA) | ≥ 10000 | ≥ 10000 | C* (an IC50 ratio of less than 3 fold between the IC50 in the HAP1 MTAP-intact cell line and the HAP1 MTAP-deleted cell line) |  |  |
| Cc1ncoc1COc1ccc2c(c1)CCN(C[C@@H](O)CNC(=O)c1ccnc(NC3CCN(C(=O)C(C)(C)C)CC3)c1)C2 [Compound 640, (S)—N-(2-hydroxy-3-(6-((4-methyloxazol-5-yl)methoxy)-3,4-dihydroisoquinolin-2(1H)-yl)propyl)-2-((1-pivaloylpiperidin-4-yl)amino)isonicotinamide] | 50 to 500 |  | 50 to 500 |  | 1000 to 10000 |  |  | 500 to 5000 | A (a Ki ratio greater than or equal to 10 fold between the Ki in the presence of SAM and the Ki in the presence of MTA) |
| Cc1ncoc1COc1ccc2c(c1)CCN(C[C@@H](O)CNC(=O)c1ccnc(NC3CCC3)c1)C2 [Compound 96, (S)-2-(cyclobutylamino)-N-(2-hydroxy-3-(6-((4-methyloxazol-5-yl)methoxy)-3,4-dihydroisoquinolin-2(1H)-yl)propyl)isonicotinamide] |  |  |  |  | < 1000 | < 1000 |  |  |  |
| O=C(NC[C@H](O)CN1CCc2cc(OCc3cn[nH]c3)ccc2C1)c1ccnc(NC2CCC2)c1 [Compound 163, 2-(cyclobutylamino)-N-[(2S)-2-hydroxy-3-[6-(1H-pyrazol-4-ylmethoxy)-3,4-dihydro-1H-isoquinolin-2-yl]propyl]pyridine-4-carboxamide] |  |  |  |  | < 1000 | < 1000 |  |  |  |
| CC(=O)N1CC(Nc2cc(C(=O)NC[C@H](O)CN3CCc4cc(OCc5ocnc5C)c(F)cc4C3)cc(N3CCCCC3)n2)C1 [Compound 638] | 50 to 500 |  | 50 to 500 |  | 1000 to 10000 |  |  | 50 to 500 | A (a Ki ratio greater than or equal to 10 fold between the Ki in the presence of SAM and the Ki in the presence of MTA) |
| O=C(NC[C@H](O)CN1CCc2c(ccc(OCc3cnco3)c2Cl)C1)c1ccnc(NC2CCC2)c1F [Compound 326, (S)—N-(3-(5-chloro-6-(oxazol-5-ylmethoxy)-3N-dihydroisoquinolin-2(1H)-yl)-2-hydroxypropyl)-2-(cyclobutylamino)-3-fluoroisonicotinamide] |  |  |  |  | ≥ 10000 | ≥ 10000 |  |  |  |
| CC(=O)N1CCC(Nc2cc(C(=O)NC[C@H](O)CN3CCc4cc(OCc5ocnc5C)ccc4C3)cc(C3CCCCC3)n2)CC1 [Compound 641, (S)-2-((1-acetylpiperidin-4-yl)amino)-6-cyclohexyl-N-(2-hydroxy-3-(6-((4-methyloxazol-5-yl)methoxy)-3,4-dihydroisoquinolin-2(1H)-yl)propyl)isonicotinamide] | 50 to 500 |  | < 50 |  | < 1000 |  |  | 500 to 5000 | A (a Ki ratio greater than or equal to 10 fold between the Ki in the presence of SAM and the Ki in the presence of MTA) |
| O=C(NC[C@H](O)CN1CCc2cc(OCc3cnco3)ccc2C1)c1ccnc(NC2CCC2)c1 [Compound 74, 2-(cyclobutylamino)-N-[(2S)-2-hydroxy-3-[6-(oxazol-5-ylmethoxy)-3,4-dihydro-1H-isoquinolin-2-yl]propyl]pyridine-4-carboxamide] |  |  |  |  | 1000 to 10000 | 1000 to 10000 |  |  |  |
| Cn1nccc1COc1ccc2c(c1)CCN(C[C@@H](O)CNC(=O)c1ccnc(NC3CCC3)c1)C2 [Compound 14, (S)-2-(cyclobutylamino)-N-(2-hydroxy-3-(6-((1-methyl-1H-pyrazol-5-yl)methoxy)-3,4-dihydroisoquinolin-2(1H)-yl)propyl)isonicotinamide] |  |  |  |  | 1000 to 10000 | ≥ 10000 |  |  |  |
| CC(=O)N1CCC(Nc2cc(C(=O)NC[C@H](O)CN3CCc4c(C)c(OCc5ocnc5C)cc(F)c4C3)ccn2)CC1 [Compound 642, 2-[(1-acetyl-4-piperidyl)amino]-N-[(2S)-3-[8-fluoro-5-methyl-6-[(4-methyloxazol-5-yl)methoxy]-3,4-dihydro-1H-isoquinolin-2-yl]-2-hydroxy-propyl]pyridine-4-carboxamide] | 50 to 500 |  | 50 to 500 |  | ≥ 10000 |  |  | 500 to 5000 | A (a Ki ratio greater than or equal to 10 fold between the Ki in the presence of SAM and the Ki in the presence of MTA) |
| CO[C@H]1C[C@H](Nc2cc(C(=O)NC[C@H](O)CN3CCc4c(ccc(OCc5cnco5)c4C)C3)ccn2)C1 [Compound 591, N-[(2S)-2-hydroxy-3-{5-methyl-6-[(1,3-oxazol-5-yl)methoxy]-1,2,3,4-tetrahydroisoquinolin-2-yl}propyl]-2-{[(1r,3r)-3-methoxycyclobutyl]amino}pyridine-4-carboxamide] | 50 to 500 | ≥ 5000 | 50 to 500 | A (a Ki ratio greater than or equal to 10 fold between the Ki in the presence of SAM and the Ki in the presence of MTA) |  |  |  |  |  |
| Cc1c(OCc2cnco2)ccc2c1CCN(C[C@@H](O)CNC(=O)c1cncc(NC3CCOC3)c1)C2 (stereo partly drawn) [Compound 510] | 500 to 5000 | ≥ 5000 | 50 to 500 | A (a Ki ratio greater than or equal to 10 fold between the Ki in the presence of SAM and the Ki in the presence of MTA) |  |  |  |  |  |
| Cc1ncoc1COc1ccc2c(c1)CCN(C[C@@H](O)CNC(=O)c1cc(NC3CCC3)nc(N3CCCCC3)n1)C2 [Compound 639, (S)-6-(cyclobutylamino)-N-(2-hydroxy-3-(6-((4-methyloxazol-5-yl)methoxy)-3,4-dihydroisoquinolin-2(1H)-yl)propyl)-2-(piperidin-1-yl)pyrimidine-4-carboxamide] | 50 to 500 |  | 50 to 500 |  | < 1000 |  |  | 500 to 5000 | A (a Ki ratio greater than or equal to 10 fold between the Ki in the presence of SAM and the Ki in the presence of MTA) |
| Cc1c(OCc2cnco2)ccc2c1CCN(C[C@@H](O)CNC(=O)c1cc(N[C@H]3C[C@H](C(=O)N4CCCCC4)C3)ncn1)C2 [Compound 526] | 500 to 5000 | ≥ 5000 | 50 to 500 | A (a Ki ratio greater than or equal to 10 fold between the Ki in the presence of SAM and the Ki in the presence of MTA) |  |  |  |  |  |
| Cc1ncoc1COc1ccc2c(c1)[C@@H](O)CN(C[C@@H](O)CNC(=O)c1ccnc(NC3CCC3)c1)C2 (single isomer, unassigned) [Compound 505] | 500 to 5000 | ≥ 5000 | 500 to 5000 | A (a Ki ratio greater than or equal to 10 fold between the Ki in the presence of SAM and the Ki in the presence of MTA) |  |  |  |  |  |
